Test system: N-Myc-Max transcription activity (LNCaP-NMYC cells)
Assay: Myc transcription assay (Cignal Myc reporter, luciferase) in LNCaP-NMYC cells
Format: cell-based
Parameters: 10 uM corrected / 5uM corrected: unit not given here
Conditions: for inhibition at 5 µM / inhibition at 10 µM: 24 h; for inhibition at 5 µM / inhibition at 10 µM / transcription inhibition activity (in words) / transcription inhibition activity at 5 µM (in words): LNCaP-NMYC; for inhibition at 5 µM: read-out: % Transcript Inhibition (5 µM); for inhibition at 10 µM: read-out: % Transcript Inhibition (10 µM); for IC50: Homo sapiens, LNCaP, Table 2, transcriptional assay in LNCaP cells overexpressing N-Myc, read-out: IC50; for transcription inhibition activity (in words): screened at 10 µM and 5 µM; for 5uM corrected / 10 uM corrected: sheet 181_set
Description: To determine the optimal substitutions on the free phenyl ring, we used the active scaffold for a second substructure search against the ZINC15 database to identify a set of 181 analogues for further validation (VPC-70617 to -70799, presented in Supplementary Table S1). Compounds were tested for their inhibition of a N-Myc-Max luciferase transcription activity assay at 5 and 10 µM Figure 2a. Herein, we inspected all the proposed substitutions on the scaffold to discern the features required to construct a possible SAR model for inhibitors targeting N-Myc-Max/DBD complex (Figure 2b).
LNCaP-NMYC cells were transfected using TransIT-2020 transfection reagents per the manufacturer’s protocol. Cells were plated at a density of 10,000 cells per well of a 96-well plate. Following 24 h treatment with 5 µM or 10 µM of the compounds, the Myc reporter activity was measured using the Cignal Myc Reporter Assay Kit from Qiagen (#336841) (Hilden, Germany) per the manufacturer’s instructions.

SMILES	inhibition at 5 µM [%]	inhibition at 10 µM [%]	IC50 [µM]	transcription inhibition activity (in words)	5uM corrected	10 uM corrected	transcription inhibition activity at 5 µM (in words)
C#Cc1ccc(C(=O)NNc2ccc(C#N)cc2C(F)(F)F)cc1 [compound 70582]	44	84	8	–	–	–	–
O=C(NNc1ccc(C(F)(F)F)cc1)c1ccc(C(F)(F)F)cc1 [compound 70583]	8	28	> 20	–	–	–	–
N#Cc1ccc(C(=O)NNc2ccc(C(F)(F)F)cc2)cc1 [compound 70584]	34	30	> 20	–	–	–	–
O=C(NNc1ccccc1F)c1ccc(C(F)(F)F)cc1 [compound 70585]	16	24	> 20	–	–	–	–
N#Cc1ccc(NNC(=O)c2ccc(C(F)(F)F)cc2)cc1 [compound 70586]	28	34	> 20	significantly reduced inhibition activity	–	–	–
N#Cc1ccc(NNC(=O)c2ccc(C#N)cc2)cc1 [compound 70587]	-58	14	–	–	–	–	–
N#Cc1ccc(NNC(=O)c2ccc(OC(F)F)cc2)c(C(F)(F)F)c1 [compound 70588]	32	46	–	–	–	–	–
N#Cc1ccc(NNC(=O)c2ccc(I)cc2)c(C(F)(F)F)c1 [compound 70589]	64	94	3	–	–	–	–
C=Cc1ccc(C(=O)NNc2ccc(C#N)cc2C(F)(F)F)cc1 [compound 70590]	38	62	15	–	–	–	–
N#Cc1ccc(NNC(=O)c2ccc(F)cc2)c(C(F)(F)F)c1 [compound 70591]	18	64	25	–	–	–	–
N#Cc1ccc(C(=O)NNc2ccc(C#N)cc2C(F)(F)F)cc1 [compound 70593]	-26	70	12	significantly more active	–	–	–
CC(C)(C#N)c1ccc(C(=O)NNc2ccc(C#N)cc2C(F)(F)F)cc1 [compound 70594]	22	10	–	–	–	–	–
CC(C)c1ccc(C(=O)NNc2ccc(C#N)cc2C(F)(F)F)cc1 [compound 70595]	30	70	12	–	–	–	–
N#Cc1ccc(NNC(=O)c2cccc(C(F)(F)F)c2)c(C(F)(F)F)c1 [compound 70596]	96	94	2	significantly more active	–	–	–
N#Cc1ccc(NNC(=O)c2ccc(C(F)(F)F)cc2)c(C(F)(F)F)c1 [compound 70597]	26	82	12	–	–	–	–
N#Cc1ccc(NNC(=O)c2ccc(Cl)cc2)c(C(F)(F)F)c1 [compound 70599]	96	78	3	significantly more active	–	–	–
Cc1ccc(C(=O)NNc2ccc(C#N)cc2C(F)(F)F)cc1 [compound 70600]	-22	10	–	–	–	–	–
N#Cc1ccc(NNC(=O)c2ccc(C(N)=O)cc2)c(C(F)(F)F)c1 [compound 70601]	16	-12	–	–	–	–	–
N#Cc1ccc(NNC(=O)c2ccc(Br)cc2)c(C(F)(F)F)c1 [compound 70602]	12	48	–	–	–	–	–

SMILES	inhibition at 5 µM [%]	inhibition at 10 µM [%]	IC50 [µM]	transcription inhibition activity (in words)	5uM corrected	10 uM corrected	transcription inhibition activity at 5 µM (in words)
N#Cc1ccc(NNC(=O)c2ccccc2)c(C(F)(F)F)c1 [compound 70603]	-30	-12	> 20	–	–	–	–
CN(C)c1ccc(C(=O)NNc2ccc(C#N)cc2C(F)(F)F)cc1 [compound 70605]	-74	26	–	–	–	–	–
CC(F)(F)c1ccc(C(=O)NNc2ccccc2C(F)(F)F)cc1 [compound 70606]	0	-10	–	–	–	–	–
CC(F)(F)c1ccc(C(=O)NNc2ccc(C#N)cc2)cc1 [compound 70607]	-20	-8	–	–	–	–	–
CC(F)(F)c1ccc(C(=O)NNc2ccc(C#N)cc2C(F)(F)F)cc1 [compound 70608]	-14	38	–	–	–	–	–
O=C(NNc1ccccc1C(F)(F)F)c1ccc(F)cc1 [compound 70609]	20	12	–	–	–	–	–
O=C(NNc1ccccc1C(F)(F)F)c1ccc(C(F)(F)F)cc1 [compound 70611]	-28	4	> 20	significantly reduced inhibition activity	–	–	–
Cc1cc(C(=O)NNc2ccc(C#N)cc2C(F)(F)F)ccc1Cl [compound 70617]	–	–	–	–	4	96	did not impart any inhibitory activity
N#Cc1ccc(NNC(=O)c2ccc(Cl)cc2Cl)c(C(F)(F)F)c1 [compound 70624]	–	–	–	abolished inhibitory activity	8	78	–
Cc1ccc(C(=O)NNc2ccc(C#N)cc2C(F)(F)F)cc1Cl [compound 70628]	–	–	–	lower transcription inhibition or no activity at all	8	90	–
Cc1cc(C)cc(C(=O)NNc2ccc(C#N)cc2C(F)(F)F)c1 [compound 70651]	–	–	–	no activity	-32	0	–
N#Cc1ccc(NNC(=O)c2ccc(C#N)c(O)c2)c(C(F)(F)F)c1 [compound 70673]	–	–	–	–	-56	-38	–
N#Cc1ccc(NNC(=O)c2ccccc2Cl)c(C(F)(F)F)c1 [compound 70701]	–	–	–	declined considerably or was lost completely	-28	6	–
N#Cc1ccc(NNC(=O)c2ccccc2I)c(C(F)(F)F)c1 [compound 70702]	–	–	–	declined considerably or was lost completely	-10	10	–
N#Cc1ccc(NNC(=O)c2ccccc2F)c(C(F)(F)F)c1 [compound 70709]	–	–	–	declined considerably or was lost completely	0	-10	–
CS(=O)(=O)c1cc(C(=O)NNc2ccc(C#N)cc2C(F)(F)F)ccc1Cl [compound 70721]	–	–	–	–	-42	2	did not impart any inhibitory activity
N#Cc1ccc(NNC(=O)c2cccc(Br)c2)c(C(F)(F)F)c1 [compound 70754]	–	–	–	better inhibition activity	94	60	–
Cc1ccc(C(=O)NNc2ccc(C#N)cc2C(F)(F)F)cc1F [compound 70765]	–	–	–	lower transcription inhibition or no activity at all	30	54	–
N#Cc1ccc(NNC(=O)c2cc(F)c(F)cc2F)c(C(F)(F)F)c1 [compound 70772]	–	–	–	nullified activity	22	94	–

Source: PMC8910697, “Development of VPC-70619, a Small-Molecule N-Myc Inhibitor as a Potential Therapy for Neuroendocrine Prostate Cancer” (International Journal of Molecular Sciences, 2022)
